{
  "source": "patent US8952024B2",
  "about": "“Herbicidal pyrimidone derivatives” (E I du Pont de Nemours and Company, priority 2009, dated 2015)",
  "experiment_in_all_cases": "Test B pre-/postemergence plant response",
  "type_in_all_cases": "in vivo",
  "key": {"[1]": {"system": "bermudagrass (Cynodon dactylon)", "source_text": "(§1) Seeds of plant species selected from blackgrass (Alopecurus myosuroides), downy bromegrass (Bromus tectorum), green foxtail (Setaria viridis), Italian ryegrass (Lolium multiflorum), wheat (Triticum aestivum), wild oat (Avena fatua), deadnettle (henbit deadnettle, Lamium amplexicaule), galium (catchweed bedstraw, Galium aparine), bermudagrass (Cynodon dactylon), Surinam grass (Brachiaria decumbens), cocklebur (Xanthium strumarium), corn (Zea mays), large crabgrass (Digitaria sanguinalis), woolly cupgrass (Eriochloa villosa), giant foxtail (Setaria faberii), goosegrass (Eleusine indica), johnsongrass (Sorghum halepense), kochia (Kochia scoparia), lambsquarters (Chenopodium album), morningglory (Ipomoea coccinea), nightshade (eastern black nightshade, Solanum ptycanthum), yellow nutsedge (Cyperus esculentus), pigweed (Amaranthus retroflexus), ragweed (common ragweed, Ambrosia elatior), Russian thistle (Salsola kali), soybean (Glycine max), sunflower (common oilseed sunflower, Helianthus annuus) and velvetleaf (Abutilon theophrasti) were planted into a blend of loam soil and sand and treated preemergence with test compounds formulated in a non-phytotoxic solvent mixture which included a surfactant.\n(§2) At the same time, plants selected from these crop and weed species and also winter barley (Hordeum vulgare), canarygrass (Phalaris minor), chickweed (Stellaria media) and windgrass (Apera spica-venti) were planted in pots containing Redi-Earth® planting medium (Scotts Company, 14111 Scottslawn Road, Marysville, Ohio 43041) comprising spaghnum peat moss, vermiculite, wetting agent and starter nutrients and treated with postemergence applications of some of the test chemicals formulated in the same manner. Plants ranged in height from 2 to 18 cm (1- to 4-leaf stage) for postemergence treatments.\n(§3) Treated plants and controls were maintained in a greenhouse for 13 to 15 days, after which time all treated plants were visually evaluated and compared to controls. Plant response ratings, summarized in Table B, are based on a scale of 0 to 100 where 0 is no effect and 100 is complete control. A dash (-) response means no test result."}, "[2]": {"system": "blackgrass (Alopecurus myosuroides)", "source_text": "as §1, §2, §3"}, "[3]": {"system": "cocklebur (Xanthium strumarium)", "source_text": "as §1, §2, §3"}, "[4]": {"system": "downy bromegrass (Bromus tectorum)", "source_text": "as §1, §2, §3"}, "[5]": {"system": "giant foxtail (Setaria faberii)", "source_text": "as §1, §2, §3"}, "[6]": {"system": "green foxtail (Setaria viridis)", "source_text": "as §1, §2, §3"}, "[7]": {"system": "johnsongrass (Sorghum halepense)", "source_text": "as §1, §2, §3"}, "kochia (Kochia scoparia)": {"system": "kochia (Kochia scoparia)", "source_text": "as §1, §2, §3"}, "[8]": {"system": "morningglory (Ipomoea coccinea)", "conditions": "postemergence, 100 is complete control", "source_text": "as §1, §2, §3"}, "[9]": {"conditions": "62 g ai/ha, postemergence, 0 is no effect, 100 is complete control, 13 to 15 days"}},
  "data": [
    {"molecule": "COCCn1c(-c2ccsc2)ncc(C(=O)C2=C(O)CCCC2=O)c1=O", "note": "[Compound 97, 5-[(2-hydroxy-6-oxo-1-cyclohexen-1-yl)carbonyl]-3-(2-methoxyethyl)-2-(3-thienyl)-4(3H)-pyrimidinone]", "values": [
      {"measurement": "Bermudagrass plant response rating (0 to 100 scale)", "setting": "[1]; [9]", "value": 95},
      {"measurement": "pest or weed control at 31 g/ha", "setting": "[1]; Cynodon dactylon, post-emergence, 31 g ai/ha, postemergence, scale 0 to 100, 0 is no effect, 100 is complete control, read-out: Plant response rating, Bermudagrass", "value": 95, "unit": "%"},
      {"measurement": "pest or weed control at 125 g/ha", "setting": "[1]; Cynodon dactylon, post-emergence, Postemergence, 125 g ai/ha, visual rating after 13 to 15 days, scale 0 (no effect) to 100 (complete control)", "value": 95, "unit": "%"},
      {"measurement": "pest or weed control at 250 g/ha", "setting": "[1]; Cynodon dactylon, post-emergence, Postemergence, 250 g ai/ha, scale 0 to 100 (0 no effect, 100 complete control), read-out: Plant response rating, Bermudagrass", "value": 98, "unit": "%"},
      {"measurement": "Blackgrass plant response rating (0 to 100 scale)", "setting": "[2]; [9]", "value": 20},
      {"measurement": "pest or weed control at 31 g/ha", "setting": "[2]; Alopecurus myosuroides, post-emergence, 360 h, 31 g ai/ha, postemergence, scale 0 to 100, 0 is no effect, 100 is complete control, read-out: Plant response rating, Blackgrass", "value": 5, "unit": "%"},
      {"measurement": "pest or weed control at 125 g/ha", "setting": "[2]; Alopecurus myosuroides, post-emergence, 360 h, Postemergence, 125 g ai/ha, visual rating after 13 to 15 days, scale 0 (no effect) to 100 (complete control)", "value": 30, "unit": "%"},
      {"measurement": "pest or weed control at 250 g/ha", "setting": "[2]; Alopecurus myosuroides, post-emergence, 360 h, Postemergence, 250 g ai/ha, scale 0 to 100 (0 no effect, 100 complete control), read-out: Plant response rating, Blackgrass", "value": 50, "unit": "%"},
      {"measurement": "Cocklebur plant response rating (0 to 100 scale)", "setting": "[3]; [9]", "value": 100},
      {"measurement": "pest or weed control at 31 g/ha", "setting": "[3]; Xanthium strumarium, post-emergence, 31 g ai/ha, postemergence, scale 0 to 100, 0 is no effect, 100 is complete control, read-out: Plant response rating, Cocklebur", "value": 95, "unit": "%"},
      {"measurement": "pest or weed control at 125 g/ha", "setting": "[3]; Xanthium strumarium, post-emergence, Postemergence, 125 g ai/ha, visual rating after 13 to 15 days, scale 0 (no effect) to 100 (complete control)", "value": 100, "unit": "%"},
      {"measurement": "pest or weed control at 250 g/ha", "setting": "[3]; Xanthium strumarium, post-emergence, Postemergence, 250 g ai/ha, scale 0 to 100 (0 no effect, 100 complete control), read-out: Plant response rating, Cocklebur", "value": 100, "unit": "%"},
      {"measurement": "Bromegrass, Downy plant response rating (0 to 100 scale)", "setting": "[4]; [9]", "value": 0},
      {"measurement": "pest or weed control at 31 g/ha", "setting": "[4]; Bromus tectorum, post-emergence, 31 g ai/ha, postemergence, scale 0 to 100, 0 is no effect, 100 is complete control, read-out: Plant response rating, Bromegrass, Downy", "value": 0, "unit": "%"},
      {"measurement": "pest or weed control at 125 g/ha", "setting": "[4]; Bromus tectorum, post-emergence, Postemergence, 125 g ai/ha, visual rating after 13 to 15 days, scale 0 (no effect) to 100 (complete control)", "value": 5, "unit": "%"},
      {"measurement": "pest or weed control at 250 g/ha", "setting": "[4]; Bromus tectorum, post-emergence, Postemergence, 250 g ai/ha, scale 0 to 100 (0 no effect, 100 complete control), read-out: Plant response rating, Bromegrass, Downy", "value": 10, "unit": "%"},
      {"measurement": "Foxtail, Giant plant response rating (0 to 100 scale)", "setting": "[5]; [9]", "value": 75},
      {"measurement": "pest or weed control at 31 g/ha", "setting": "[5]; Setaria faberi, post-emergence, 31 g ai/ha, postemergence, scale 0 to 100, 0 is no effect, 100 is complete control, read-out: Plant response rating, Foxtail, Giant", "value": 60, "unit": "%"},
      {"measurement": "pest or weed control at 250 g/ha", "setting": "[5]; Setaria faberi, post-emergence, Postemergence, 250 g ai/ha, scale 0 to 100 (0 no effect, 100 complete control), read-out: Plant response rating, Foxtail, Giant", "value": 90, "unit": "%"},
      {"measurement": "Foxtail, Green plant response rating (0 to 100 scale)", "setting": "[6]; [9]", "value": 85},
      {"measurement": "pest or weed control at 31 g/ha", "setting": "[6]; Setaria viridis, post-emergence, 31 g ai/ha, postemergence, scale 0 to 100, 0 is no effect, 100 is complete control, read-out: Plant response rating, Foxtail, Green", "value": 40, "unit": "%"},
      {"measurement": "pest or weed control at 250 g/ha", "setting": "[6]; Setaria viridis, post-emergence, Postemergence, 250 g ai/ha, scale 0 to 100 (0 no effect, 100 complete control), read-out: Plant response rating, Foxtail, Green", "value": 95, "unit": "%"},
      {"measurement": "Johnsongrass plant response rating (0 to 100 scale)", "setting": "[7]; [9]", "value": 55},
      {"measurement": "pest or weed control at 31 g/ha", "setting": "[7]; Sorghum halepense, post-emergence, 31 g ai/ha, postemergence, scale 0 to 100, 0 is no effect, 100 is complete control, read-out: Plant response rating, Johnsongrass", "value": 15, "unit": "%"},
      {"measurement": "pest or weed control at 250 g/ha", "setting": "[7]; Sorghum halepense, post-emergence, Postemergence, 250 g ai/ha, scale 0 to 100 (0 no effect, 100 complete control), read-out: Plant response rating, Johnsongrass", "value": 85, "unit": "%"},
      {"measurement": "Kochia plant response rating (0 to 100 scale)", "setting": "kochia (Kochia scoparia); [9]", "value": 90},
      {"measurement": "pest or weed control at 31 g/ha", "setting": "kochia (Kochia scoparia); Bassia scoparia, post-emergence, 31 g ai/ha, postemergence, scale 0 to 100, 0 is no effect, 100 is complete control, read-out: Plant response rating, Kochia", "value": 65, "unit": "%"},
      {"measurement": "pest or weed control at 250 g/ha", "setting": "kochia (Kochia scoparia); Bassia scoparia, post-emergence, Postemergence, 250 g ai/ha, scale 0 to 100 (0 no effect, 100 complete control), read-out: Plant response rating, Kochia", "value": 100, "unit": "%"},
      {"measurement": "Morningglory plant response rating (0 to 100 scale)", "setting": "[8]; 62 g ai/ha, 0 is no effect, 13 to 15 days", "value": 100},
      {"measurement": "pest or weed control at 31 g/ha", "setting": "[8]; Ipomoea, post-emergence, 31 g ai/ha, scale 0 to 100, 0 is no effect, read-out: Plant response rating, Morningglory", "value": 100, "unit": "%"}
    ]}
  ]
}
